Measured values from the NIST ThermoML archive (doi:10.1021/je9000697).

Test: wn = mass fraction of the nth substance listed
Details: 101 kPa, Liquid

OCCO [1,2-ethanediol] + O
Details | mass density, 298.15 K [kg/m3] | mass density, 303.15 K [kg/m3] | mass density, 308.15 K [kg/m3] | mass density, 318.15 K [kg/m3] | viscosity, 298.15 K [mPa·s] | viscosity, 303.15 K [mPa·s] | viscosity, 308.15 K [mPa·s] | viscosity, 318.15 K [mPa·s]
w1 = 0.1 | 1009.49 | 1007.62 | 1005.57 | 1002.73 | 1.152 | 1.017 | 0.9078 | 0.7381
w1 = 0.2 | 1022.45 | 1020.98 | 1018.5 | 1014.28 | 1.469 | 1.306 | 1.149 | 0.9243
w1 = 0.3 | 1035.7 | 1034.05 | 1031.66 | 1026.73 | 1.903 | 1.657 | 1.462 | 1.164
w1 = 1 | – | 1104.47 | 1100.13 | 1092.15 | 18.64 | 13.86 | 11.66 | 7.453
